# Entries after “also recorded” stand apart in the source; their conditions may differ. {Pso} = 4'-hydroxymethyl-4,5',8-trimethylpsoralen through a two-carbon linker arm and a phosphodiester
# What was measured:
# [1] = tested on: supF gene (250 bp fragment); assay: Triplex binding assay (32P-labelled oligonucleotide, gel electrophoresis); parameters: species or system E. coli; conditions: for Binding of oligonucleotide to supF gene fragment: 32P-labelled oligomer 6×10^−8 M, oligomer:supF about 1:1, 2 hours at 37 degrees; for Competition with 32P-labelled AG10 for binding to supF: unlabelled competitor at 200-fold molar excess
# Description: The target gene chosen was supF, an E. coli amber suppressor tyrosine tRNA gene, contained within the genome of a lambda phage vector, lambda supF as shown in FIG. 1. A 10 base homopurine oligonucleotide AG10 (5′AGGAAGGGGG 3′) capable of forming a triple strand at positions 167–176 in the supF gene was identified.
# The 250 bp supF target was generated from lambda supF using the polymerase chain reaction. Each oligo (200 ng) was labelled with 50 μCi of gamma-^32P-ATP (Amersham, Arlington Heights, Ill.) and separated from unreacted gamma^32P-ATP by passage through a G-25 spin column (Boehringer Mannheim, Indianapolis, Ind.). The concentration of oligomer in the reaction mixture was 6×10^−8 M and the oligomer:supF ratio was approximately 1:1 on a molar basis. When present, competitors were used at 200-fold molar excess.
# Following the 2 hour binding step, reaction mixtures were run on a 4% acrylamide gel in 90 mM Tris base, 90 mM boric acid, 20 mM MgCl2 with a 20% acrylamide plug. A 100 bp ladder (BRL, Bethesda, Md.) was end-labelled as described for oligomers and run on gels as a size reference. Following a 4 hour run at constant voltage (150 V), the gel was visualized by autoradiography for 1 hour using Kodak X-AR film. […] To assay for triplex formation, ^32P-labeled oligonucleotides, either AG10 (^5 AGGAAGGGGG^3) (SEQ ID NO:2) or the reverse sequence oligomer (GA10), were incubated with a […] double-stranded fragment containing the entire supF gene. The products of the binding reactions were visualized by polyacrylamide gel electrophoresis and autoradiography.
# When no supF target DNA was present, there was no band observed at this position. […] In lanes 5–8, no binding of the ^32P-labelled GA10 to supF was detected: GA10 alone without supF; GA10 plus supF; GA10 plus supF with excess unlabelled GA10; GA10 plus supF with excess AG10.
# [2] = tested on: supF gene; conditions: free psoralen plus UVA, published data, FIG. 2B/5B; cited from earlier work
molecule,measurement,setting,value
"5′ GGGGGAAGGA 3′ (DNA, 5' {Pso}, backbone not given here; triplex-forming reverse control oligonucleotide) [GA10]",Binding of oligonucleotide to supF gene fragment,[1],no binding; also recorded: failed to bind to supF; also recorded: did not bind
same,Competition with 32P-labelled AG10 for binding to supF,[1],did not compete with AG10; also recorded: failed to bind to supF or to compete with AG10 for binding
"5′AGGAAGGGGG 3′ (DNA, 5' {Pso}, backbone not given here; triplex-forming oligonucleotide) [AG10, 10 base homopurine oligonucleotide capable of forming a triple strand at positions 167–176 in the supF gene]",Binding of oligonucleotide to supF gene fragment,[1],Binding of labelled AG10 to the added supF DNA was demonstrated; also recorded: bound specifically to the supF gene
same,Competition with 32P-labelled AG10 for binding to supF,[1],competed with the ^32P-labelled AG10
COc1c2occc2cc2ccc(=O)oc12 [8-methoxypsoralen],Occurrence of supF mutations at base pair 167,[2],none of them occur at position 167; also recorded: none were found to occur at base pair 167

# Source: patent publication US7078389B2, “Chemically modified oligonucleotide for site-directed mutagenesis” (priority 1993, dated 2006)
